US20250186404A1, “METHODS OF USING A (THIAZOLYL)BENZENESULFONAMIDE DERIVATIVE” (Cyteir Therapeutics, Inc., priority 2023, published 2025)

Each molecule was assayed on Daudi (Burkitt Lymphoma) cells (assay: Intracellular Lactate Accumulation Assay (Lactate-Glo)). Settings: Homo sapiens; Daudi cells, 2 h treatment, intracellular lactate accumulation; read-out: LactateGlo EC50.
Type: cell-based, human
Experimental: Intracellular lactate accumulation after a 2 h treatment with compounds of the present invention was measured in Daudi (Burkitt Lymphoma) cells using the Lactate-Glo Assay (Promega).
Daudi cells were seeded at 7,500 cells per well in 150 μL of growth medium (RPMI-1640 with 2 mM GlutaMAX+10% FBS) in clear, 96-well, flat-bottom microplates, and incubated overnight (37° C., 5% CO2). Compounds of the present invention were added using an INTEGRA VIAFLO 96 (8 point, 3-fold serial dilution, top concentration 1, 10, or 20 μM, 0.4% final DMSO concentration). After a 2 h incubation (37° C., 5% CO2) microplates containing cells were washed twice with 150 μL ice-cold PBS, resuspended in 25 μL ice-cold PBS containing 12.5 μL 0.6N HCl, and placed on a microplate shaker for 5 min to lyse the cells. Following lysis, 12.5 μL 1M Trizma base was added to neutralize the suspension, and microplates were returned to the microplate shaker for 1 min. Plates were sealed and stored at −20° C. until further processing. On the day of the assay, microplates were thawed for 45 min at room temperate and 50 μL Lactate Detection Reagent (prepared as specified by manufacturer) was added to each well. Microplates were placed on a plate shaker for 1 min and incubated at room temperature for 1 h. Luminescence was measured using a BioTek Cytation 5 Multi-Mode Reader. Curve fitting and calculation of EC50 was performed using GraphPad Prism.
In addition, Daudi human lymphoma cells were treated with a titration of Compound 67A for 4 h, then intracellular lactate was measured via LactateGlo (FIG. 2). Compound 67A treatment elevates intracellular lactate (FIGS. 3-5). […] Inhibiting MCT function in glycolytic cancer cells leads to an accumulation of intracellular lactate that impairs glycolysis and inhibits tumor cell growth, thereby making MCTs an attractive target for cancer therapy. Compound 67A inhibits the import of MCT ligands into cells, and induces dose-dependent intracellular lactate accumulation that correlates with cytotoxicity. MCT4 expression inversely correlates with lactate accumulation and the extent of Compound 67A cytotoxicity in cells.

Row | EC50 [µM] | Structure (SMILES)
1 | < 0.05 | CC(C)OC(=O)NC1CCC(c2ncc(-c3ccc(NC(=O)NCc4ccccc4)cc3S(=O)(=O)NC(C)(C)C)s2)CC1 (stereo not drawn) [Compound 62B]
2 | > 5 | CC(C)OC(=O)Nc1ccc(-c2cnc([C@H]3CC[C@@H](NC(=O)OC(C)C)CC3)s2)c(S(=O)(=O)NC(C)(C)C)c1 [Compound 67B]
3 | > 5 | CNC(=N)Nc1ccc(-c2cnc(C3CCC(NC(=O)OC(C)C)CC3)s2)c(S(=O)(=O)NC(C)(C)C)c1 (stereo not drawn) [Compound 75]
4 | > 5 | COC(=O)NC1CCC(c2ncc(-c3ccc(NC(=O)OC(C)C)cc3S(=O)(=O)NC(C)(C)C)s2)CC1 (stereo not drawn) [Compound 76]

Each molecule was assayed against T1, human MCT1 (Homo sapiens, UniProt P53985) (assay: MCT1 Transport Inhibition Assay (TPGA uptake, LC-MS/MS)). Settings: MDCK-II cells overexpressing human MCT1, TPGA transport; read-out: BioIVT MCT1 Transporter IC50.
T1 construct: host or cells: MDCK-II (canine) cells, transient co-transfection
T1 sequence (P53985 1-500): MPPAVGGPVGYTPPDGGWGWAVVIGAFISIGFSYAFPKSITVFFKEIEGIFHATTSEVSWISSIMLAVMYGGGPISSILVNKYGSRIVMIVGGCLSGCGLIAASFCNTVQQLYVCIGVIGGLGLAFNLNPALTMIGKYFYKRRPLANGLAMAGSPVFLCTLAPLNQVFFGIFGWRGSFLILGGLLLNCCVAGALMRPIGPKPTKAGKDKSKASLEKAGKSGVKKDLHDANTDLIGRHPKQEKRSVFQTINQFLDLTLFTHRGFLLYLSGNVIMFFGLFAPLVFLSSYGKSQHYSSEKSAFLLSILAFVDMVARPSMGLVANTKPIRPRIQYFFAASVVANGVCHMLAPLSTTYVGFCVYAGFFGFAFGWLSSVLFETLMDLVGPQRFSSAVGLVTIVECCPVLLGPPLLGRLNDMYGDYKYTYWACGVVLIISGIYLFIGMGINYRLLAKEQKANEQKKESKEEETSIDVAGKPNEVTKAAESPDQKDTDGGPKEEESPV
T1 sequence (P35613 140-385 partner limits assumed): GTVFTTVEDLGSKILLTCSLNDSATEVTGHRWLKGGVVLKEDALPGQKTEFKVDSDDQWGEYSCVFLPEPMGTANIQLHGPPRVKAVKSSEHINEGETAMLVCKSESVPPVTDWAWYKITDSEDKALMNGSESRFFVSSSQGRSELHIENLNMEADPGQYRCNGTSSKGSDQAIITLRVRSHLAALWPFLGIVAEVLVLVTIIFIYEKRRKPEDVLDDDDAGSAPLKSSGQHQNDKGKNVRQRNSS
Type: cell-based
Experimental: Inhibition of MCT1 transport after treatment with compounds of the present invention was measured in MDCK-II cells that overexpress human MCT1 by quantifying the transport of 2-Thiophene-glycoxylic acid (TPGA) into cells using LC-MS/MS.
MDCK-II cells are seeded at 60,000 cells per well in growth medium (low-glucose DMEM+10% FBS) in 96-well trans-well membrane plates, and incubated overnight (37° C., 5% CO2). Cells were co-transfected with mammalian expression constructs coding for MCT1 and CD147 at a 2:1 ratio or an empty vector control (GFP) and then incubated for 48 h (37° C., 5% CO2). Cells were washed 3 times with HBSS and cells were preincubated with inhibitors or vehicle control at room temperature in HBSS for 30 min with orbital shaking (60 rpm). HBSS was aspirated from the wells and replaced with HBSS with 25 mM Bis-Tris pH5.5+inhibitor or vehicle control+500 μM TPGA and incubated for 1 min at room temperature with orbital shaking (60 rpm). Both the apical and basolateral side of the trans-well insert were washed 4 times with ice-cold PBS. Cells were lysed with 60 μL of cell extraction solution, and the amount of TPGA in each well was quantified in triplicate by LC-MS/MS. The MCT1-mediated uptake rate was calculated using the following equation: […]
Percent inhibition for each concentration of inhibitor tested was calculated using the following equation: […]
Curves were fit to the calculated percent inhibition for each inhibitor, and the IC50 representing the concentration of inhibitor at which MCT1 is inhibited by 50% was calculated from this curve.
Canine MDCKII cells expressing human MCT1 were treated with a titration of Compound 67A, and import of the MCT1 substrate, 2-TPGA was measured by LC-MS (FIG. 1).

Row | IC50 [µM] | Structure (SMILES)
5 | 0.15 to 1 | CC(C)OC(=O)N[C@H]1CC[C@H](c2ncc(-c3ccc(NC(=O)NCc4ccccc4)cc3S(=O)(=O)NC(C)(C)C)s2)CC1 [Compound 62B]
6 | 1 to 5 | CC(C)OC(=O)Nc1ccc(-c2cnc([C@H]3CC[C@@H](NC(=O)OC(C)C)CC3)s2)c(S(=O)(=O)NC(C)(C)C)c1 [Compound 67B]
